From ChEMBL document CHEMBL5365510, “Discovery of Novel, Thienopyridine-Based Tyrosine Kinase Inhibitors Targeting Tumorigenic RON Splice Variants” (ACS Med Chem Lett, 2023)
Activity calls are given as the source filed them. The calls are words filed in the database; no cut-off is given here.

How the values were obtained:
[1] = target: T1, Macrophage-stimulating protein receptor (Homo sapiens, UniProt Q04912); experiment: Inhibition of N-terminal GST-tagged human recombinant RON (979 to 1400(end) residues) expressed in Sf21 cells incubated for 20 mins followed by ATP addition measured after 60 mins by TR-FRET based LanthaScreen kinase assay
HT-29 [2] = experiment: Antiproliferative activity against human HT-29 cells harbouring wild-type KRAS and RON delta 160 assessed as cell growth inhibition measured after 72 hrs by MTS assay; format: functional
SW-620 = experiment: Antiproliferative activity against human SW620 cells harbouring KRAS G12 V mutant and RON delta 155 assessed as cell growth inhibition measured after 72 hrs by MTS assay; format: functional
KM12C [3] = experiment: Antiproliferative activity against human KM12-C cells harbouring wild-type KRAS and RON delta 160 assessed as cell growth inhibition measured after 72 hrs by MTS assay; format: functional
[4] = target: T1, Macrophage-stimulating protein receptor; experiment: Inhibition of RON (unknown origin)
KM12C [5] = experiment: Antiproliferative activity against human KM12-C cells harbouring wild-type KRAS and RON delta 160 assessed as cell death rate at 5 uM measured after 48 hrs by trypan blue exclusion assay relative to control; format: functional
HT-29 [6] = experiment: Antiproliferative activity against human HT-29 cells harbouring wild-type KRAS and RON delta 160 assessed as cell death rate at 5 uM measured after 48 hrs by trypan blue exclusion assay relative to control; format: functional
[7] = target: Hepatocyte growth factor receptor (Homo sapiens, UniProt P08581); experiment: Inhibition of c-Met (unknown origin)
Chain of Hepatocyte growth factor receptor (P08581 whole entry): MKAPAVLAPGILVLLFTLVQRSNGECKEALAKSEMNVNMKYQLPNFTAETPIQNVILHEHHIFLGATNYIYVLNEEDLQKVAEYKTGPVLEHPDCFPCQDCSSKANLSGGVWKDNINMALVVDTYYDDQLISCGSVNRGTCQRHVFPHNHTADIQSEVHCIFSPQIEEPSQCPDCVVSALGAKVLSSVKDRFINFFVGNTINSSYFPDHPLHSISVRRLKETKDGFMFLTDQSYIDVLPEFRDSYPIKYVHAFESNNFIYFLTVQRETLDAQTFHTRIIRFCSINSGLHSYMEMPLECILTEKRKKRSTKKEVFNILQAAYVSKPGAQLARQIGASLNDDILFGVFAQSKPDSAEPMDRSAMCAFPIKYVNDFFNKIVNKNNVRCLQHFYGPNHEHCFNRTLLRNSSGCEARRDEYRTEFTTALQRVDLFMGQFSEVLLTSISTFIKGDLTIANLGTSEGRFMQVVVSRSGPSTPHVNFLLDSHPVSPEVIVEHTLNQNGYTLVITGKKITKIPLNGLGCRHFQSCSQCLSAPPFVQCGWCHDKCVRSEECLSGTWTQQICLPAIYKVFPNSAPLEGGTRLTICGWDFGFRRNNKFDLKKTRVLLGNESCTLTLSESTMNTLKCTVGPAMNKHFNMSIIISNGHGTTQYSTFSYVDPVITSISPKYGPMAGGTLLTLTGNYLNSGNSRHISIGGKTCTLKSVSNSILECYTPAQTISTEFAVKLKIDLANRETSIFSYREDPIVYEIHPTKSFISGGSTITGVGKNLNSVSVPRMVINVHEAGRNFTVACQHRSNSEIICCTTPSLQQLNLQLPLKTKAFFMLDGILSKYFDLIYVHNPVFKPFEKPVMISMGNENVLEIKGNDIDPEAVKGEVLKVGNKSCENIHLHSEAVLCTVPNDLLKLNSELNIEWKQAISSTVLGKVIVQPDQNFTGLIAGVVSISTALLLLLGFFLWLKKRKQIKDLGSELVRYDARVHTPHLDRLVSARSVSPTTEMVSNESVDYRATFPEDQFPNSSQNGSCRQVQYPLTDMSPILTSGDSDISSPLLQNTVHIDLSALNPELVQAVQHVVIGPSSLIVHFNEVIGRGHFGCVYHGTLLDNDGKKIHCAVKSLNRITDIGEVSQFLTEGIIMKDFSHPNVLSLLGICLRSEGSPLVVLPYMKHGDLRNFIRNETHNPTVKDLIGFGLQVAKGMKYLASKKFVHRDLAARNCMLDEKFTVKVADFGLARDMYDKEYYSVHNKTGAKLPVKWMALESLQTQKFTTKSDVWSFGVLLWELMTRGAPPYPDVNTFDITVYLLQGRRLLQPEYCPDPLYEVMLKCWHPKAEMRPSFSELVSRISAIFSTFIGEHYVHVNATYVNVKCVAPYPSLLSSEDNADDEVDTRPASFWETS

PANC-03-27 = experiment: Antiproliferative activity against human Panc 03.27 cells harbouring KRAS G12V mutant and RON delta 155 assessed as cell growth inhibition measured after 72 hrs by MTS assay; format: functional
PANC-1 = experiment: Antiproliferative activity against human PANC-1 cells harbouring KRAS G12D mutant and RON delta 155 assessed as cell growth inhibition measured after 72 hrs by MTS assay; format: functional
MIA PaCa-2 = experiment: Antiproliferative activity against human MIA PaCa-2 cells harbouring KRAS G12C mutant and RON delta 160 assessed as cell growth inhibition measured after 72 hrs by MTS assay; format: functional
SW480 = experiment: Antiproliferative activity against human SW480 cells harbouring KRAS G12V mutant and RON delta 155 assessed as cell growth inhibition measured after 72 hrs by MTS assay; format: functional
ASPC1 = experiment: Antiproliferative activity against human ASPC1 cells harbouring KRAS G12D mutant and RON delta 165 assessed as cell growth inhibition measured after 72 hrs by MTS assay; format: functional
[8] = Antitumor activity against patient derived Colorectal cancer cell harbouring wild-type KRAS and RON delta 160 xenografted in BALB/c mouse assessed as tumor growth inhibition at 10 mg/kg, po qd measured after 28 days; format: functional; settings: Homo sapiens, 672 h, time 28 day, read-out: TGI
CAPAN-1 = experiment: Antiproliferative activity against human CAPAN-1 cells harbouring KRAS G12V mutant and RON delta 155 assessed as cell growth inhibition measured after 72 hrs by MTS assay; format: functional

CN(C)CCOc1ccn(-c2ccc(F)cc2)c(=O)c1C(=O)Nc1ccc(Oc2ccnc3cc(-c4ccc(CN5CCOCC5)cn4)sc23)c(F)c1
IC50 [1]: 2.15 nM
GI50 (HT-29 [2]): 970 nM
GI50 (SW-620): 1920 nM
GI50 (KM12C [3]): 35 nM

CCOc1ccn(-c2ccc(F)cc2)c(=O)c1C(=O)Nc1ccc(Oc2ccnc3cc(-c4ccc(CN5CCN(C)CC5)cn4)sc23)c(F)c1
GI50 (SW-620): 680 nM
GI50 (KM12C [3]): 9 nM

CN1CCC(Oc2ccn(-c3ccc(F)cc3)c(=O)c2C(=O)Nc2ccc(Oc3ccnc4cc(-c5ccc(CN6CCOCC6)cn5)sc34)c(F)c2)C1 (stereo unspecified)
IC50 [1]: 5.47 nM
GI50 (HT-29 [2]): 5610 nM
GI50 (SW-620): 3660 nM
GI50 (KM12C [3]): 55 nM

CCOc1ccn(-c2ccc(C(F)(F)F)cc2)c(=O)c1C(=O)Nc1ccc(Oc2ccnc3cc(-c4ccc(CN5CCOCC5)cn4)sc23)c(F)c1
IC50 [1]: 17.3 nM

CCOc1ccn(-c2ccc(F)cc2)c(=O)c1C(=O)Nc1ccc(Oc2ccnc3cc(-c4ccccn4)sc23)c(F)c1
IC50 [1]: 0.48 nM
GI50 (HT-29 [2]): 3140 nM
GI50 (SW-620): 1550 nM
GI50 (KM12C [3]): 22 nM

O=C(Nc1ccc(Oc2ccnc3cc(-c4ccc(CN5CCOCC5)cn4)sc23)c(F)c1)c1c(OCCC2CC2)ccn(-c2ccc(F)cc2)c1=O
IC50 [1]: 0.72 nM
GI50 (HT-29 [2]): 860 nM
GI50 (SW-620): 2370 nM
GI50 (KM12C [3]): 11 nM

Cc1ccc(C(=O)Nc2ccc(Oc3cc4cnn(C)c4cc3-c3cn[nH]c3)c(F)c2)c(=O)n1-c1ccc(F)cc1 [MERESTINIB]
IC50 [4]: 12 nM

CCOc1ccn(-c2ccc(F)cc2)c(=O)c1C(=O)Nc1ccc(Oc2ccnc3cc(-c4ccc(CN5CC(OC)C5)cn4)sc23)c(F)c1
IC50 [1]: 0.16 nM
GI50 (HT-29 [2]): 1640 nM
GI50 (SW-620): 1030 nM
GI50 (KM12C [3]): 27 nM

CCOc1ccn(-c2ccc(F)cc2)c(=O)c1C(=O)Nc1ccc(Oc2ccnc3cc(-c4ccc(CN5CCC(F)CC5)cn4)sc23)c(F)c1
IC50 [1]: 1.82 nM
GI50 (HT-29 [2]): 2440 nM
GI50 (SW-620): 560 nM
GI50 (KM12C [3]): 17 nM

CN1CCC(COc2ccn(-c3ccc(F)cc3)c(=O)c2C(=O)Nc2ccc(Oc3ccnc4cc(-c5ccc(CN6CCOCC6)cn5)sc34)c(F)c2)C1 (stereo unspecified)
IC50 [1]: 75.6 nM

CCOc1ccn(-c2ccc(F)cc2)c(=O)c1C(=O)Nc1ccc(Oc2ccnc3cc(-c4ccc(OCCN5CCOCC5)cn4)sc23)c(F)c1
IC50 [1]: 2.39 nM
GI50 (HT-29 [2]): 2770 nM
GI50 (SW-620): 1560 nM
GI50 (KM12C [3]): 38 nM

CC(C)COc1ccn(-c2ccc(F)cc2)c(=O)c1C(=O)Nc1ccc(Oc2ccnc3cc(-c4ccc(CN5CCOCC5)cn4)sc23)c(F)c1
Activity (KM12C [5]): Active
IC50 [1]: 0.62 nM
Activity (HT-29 [6]): Active
GI50 (HT-29 [2]): 160 nM
GI50 (SW-620): 380 nM
GI50 (KM12C [3]): 3 nM

CCOc1ccn(-c2ccc(F)cc2)c(=O)c1C(=O)Nc1ccc(Oc2ccnc3cc(-c4ccc(CN5CCC(F)(F)C5)cn4)sc23)c(F)c1
IC50 [1]: 0.86 nM
GI50 (HT-29 [2]): 4880 nM
GI50 (SW-620): 620 nM
GI50 (KM12C [3]): 9 nM

CCOc1ccn(-c2ccc(F)cc2)c(=O)c1C(=O)Nc1ccc(Oc2ccnc3cc(-c4ccc(CN5CCC(F)C5)cn4)sc23)c(F)c1 (stereo unspecified)
IC50 [1]: 0.82 nM
GI50 (HT-29 [2]): 650 nM
GI50 (SW-620): 540 nM
GI50 (KM12C [3]): 16 nM

CCOc1ccn(-c2ccc(F)cc2)c(=O)c1C(=O)Nc1ccc(Oc2ccnc3cc(-c4ccc(CN5CCC(OC)C5)cn4)sc23)c(F)c1 (stereo unspecified)
IC50 [1]: 0.69 nM
GI50 (HT-29 [2]): 7710 nM
GI50 (SW-620): 360 nM
GI50 (KM12C [3]): 23 nM

CCOc1ccn(-c2ccc(F)cc2)c(=O)c1C(=O)Nc1ccc(Oc2ccnc3cc(-c4ccc(CN5CC(F)C5)cn4)sc23)c(F)c1
IC50 [1]: 0.63 nM
GI50 (HT-29 [2]): 1250 nM
GI50 (SW-620): 200 nM
GI50 (KM12C [3]): 16 nM

CCOc1ccn(-c2ccc(F)cc2)c(=O)c1C(=O)Nc1cc(F)c(Oc2ccnc3cc(-c4ccc(CN5CCOCC5)cn4)sc23)c(F)c1
IC50 [1]: 2.25 nM
GI50 (HT-29 [2]): 642 nM
GI50 (SW-620): 1350 nM
GI50 (KM12C [3]): 40 nM

COc1ccc2c(Oc3ccc(NC(=O)c4c(C)n(CC(C)(C)O)n(-c5ccccc5)c4=O)cc3F)ccnc2c1
IC50 [7]: 9 nM

CCOc1ccn(-c2ccc(F)cc2)c(=O)c1C(=O)Nc1ccc(Oc2ccnc3cc(-c4ccc(CNCCOC)cn4)sc23)c(F)c1
GI50 (HT-29 [2]): 590 nM
GI50 (SW-620): 440 nM
GI50 (KM12C [3]): 3400 nM

CCOc1ccn(-c2ccc(F)cc2)c(=O)c1C(=O)Nc1ccc(Oc2ccnc3cc(-c4ccc(CN5CC(F)(F)C5)cn4)sc23)c(F)c1
IC50 [1]: 0.48 nM
GI50 (HT-29 [2]): 970 nM
GI50 (SW-620): 780 nM
GI50 (KM12C [3]): 24 nM

CCOc1ccn(-c2ccc(F)cc2)c(=O)c1C(=O)Nc1ccc(Oc2ccnc3cc(-c4ccc(CCN5CCOCC5)cn4)sc23)c(F)c1
IC50 [1]: 2.83 nM
GI50 (HT-29 [2]): 650 nM
GI50 (SW-620): 830 nM
GI50 (KM12C [3]): 26 nM

CCOc1ccn(-c2cccc(F)c2)c(=O)c1C(=O)Nc1ccc(Oc2ccnc3cc(-c4ccc(CN5CCOCC5)cn4)sc23)c(F)c1
Activity (KM12C [5]): Active
IC50 [1]: 0.74 nM
Activity (HT-29 [6]): Active
GI50 (HT-29 [2]): 395 nM
GI50 (SW-620): 640 nM
GI50 (KM12C [3]): 42 nM

C[C@@H](Oc1cc(-c2cnn(C3CCNCC3)c2)cnc1N)c1c(Cl)ccc(F)c1Cl [CRIZOTINIB]
GI50 (PANC-03-27): 6350 nM
GI50 (PANC-1): 2560 nM
GI50 (MIA PaCa-2): 1460 nM
GI50 (HT-29 [2]): 4000 nM
GI50 (SW480): > 10000 nM
GI50 (ASPC1): 2380 nM
inhibition in vivo at 10 mg/kg [8]: 27.5%
GI50 (CAPAN-1): 5120 nM

CCCOc1ccn(-c2ccc(F)cc2)c(=O)c1C(=O)Nc1ccc(Oc2ccnc3cc(-c4ccc(CN5CCOCC5)cn4)sc23)c(F)c1
Activity (KM12C [5]): Active
IC50 [1]: 0.49 nM
Activity (HT-29 [6]): Active
GI50 (HT-29 [2]): 500 nM
GI50 (SW-620): 590 nM
GI50 (KM12C [3]): 10 nM

CCOc1ccn(-c2ccccc2)c(=O)c1C(=O)Nc1ccc(Oc2ccnc3cc(-c4ccc(CN5CCOCC5)cn4)sc23)c(F)c1
Activity (KM12C [5]): Active
Activity (HT-29 [6]): Active
GI50 (SW-620): 260 nM
GI50 (KM12C [3]): 3 nM

CCOc1ccn(-c2ccc(F)cc2)c(=O)c1C(=O)Nc1ccc(Oc2ccnc3cc(-c4ccc(CN5CCOCC5)cn4)sc23)cc1Cl
GI50 (HT-29 [2]): 1560 nM
GI50 (SW-620): 2840 nM
GI50 (KM12C [3]): 6 nM

CCOc1ccn(-c2ccc(F)cc2)c(=O)c1C(=O)Nc1ccc(Oc2ccnc3cc(-c4ccc(CN5CCOCC5)cn4)sc23)c(Cl)c1
GI50 (HT-29 [2]): 660 nM
GI50 (SW-620): 1090 nM
GI50 (KM12C [3]): 15 nM

CCOc1ccn(-c2ccc(F)cc2)c(=O)c1C(=O)Nc1ccc(Oc2ccnc3cc(-c4ccc(CN5CCC(F)(F)CC5)cn4)sc23)c(F)c1
IC50 [1]: 6 nM
GI50 (HT-29 [2]): 660 nM
GI50 (SW-620): 7370 nM
GI50 (KM12C [3]): 27 nM

CCOc1ccn(-c2ccc(Cl)cc2)c(=O)c1C(=O)Nc1ccc(Oc2ccnc3cc(-c4ccc(CN5CCOCC5)cn4)sc23)c(F)c1
GI50 (HT-29 [2]): 600 nM
GI50 (SW-620): 580 nM
GI50 (KM12C [3]): 25 nM

CCCCOc1ccn(-c2ccc(F)cc2)c(=O)c1C(=O)Nc1ccc(Oc2ccnc3cc(-c4ccc(CN5CCOCC5)cn4)sc23)c(F)c1
IC50 [1]: 0.98 nM
GI50 (HT-29 [2]): 840 nM
GI50 (SW-620): 1000 nM
GI50 (KM12C [3]): 15 nM

CCOc1ccn(-c2ccc(F)cc2)c(=O)c1C(=O)Nc1ccc(Oc2ccnc3cc(-c4ccc(CN5CCC(OC)CC5)cn4)sc23)c(F)c1
IC50 [1]: 0.73 nM
GI50 (HT-29 [2]): 1770 nM
GI50 (SW-620): 700 nM
GI50 (KM12C [3]): 19 nM
